In test [1] the test system is Purified phosphotyrosyl protein phosphatase from human placental membranes. Format: biochemical. As to the method:
(§1) Human placental alkaline phosphatase and prostatic phosphatase were obtained commercially. Alkaline phosphatase was assayed in a reaction mixture containing 50 mM glycine NaOH, pH 10, MgCl2 and 1 mM PNPP; prostatic acid phosphatase was assayed in a reaction mixture containing 100 mM acetate, pH 5, 0.1 mM PNPP, and purified phosphotyrosyl protein phosphatase was assayed in 100 mM acetate, pH 5, 0.8 mM PNPP, 0.2 mg/ml BSA and 5 mM DTT. All assays were performed at 30°.
(§2) p-Nitrophenylphosphatase activity was determined in a final volume of […] containing 100 mM acetate, pH 5, 5 mM DTT, 2.5 mg/ml BSA and 1 mM PNPP. The reaction was carried out at 30° C. and terminated with 0.5 ml of 0.2N NaOH. Alkaline PNPP phosphatase activity was similarly determined except that 50 mM glycine NaOH, pH 10, was used as buffer and 10 mM MgCl2 was included in the reaction mixture. Absorption at 410 nm wavelength was recorded on a Gilson spectrophotometer. Units of phosphatase activity were calculated with a millimolar extinction coefficient of 17.5 for p-nitrophenol at 410 nm and pH 11.

Test [2] concerns the target T1, Human placental alkaline phosphatase (obtained commercially) (Homo sapiens, UniProt P05187).
T1 construct: purchased Worthington Biochem; host or cells: human placenta
Description: biochemical. The following applies: for inhibition at 10000 µM: compound at 10 mM, read-out: % change of activity; for inhibition at 10000 µM / % change of activity: 1 mM PNPP, glycine NaOH pH 10, MgCl2, 30°; for % change of activity: compound at 10 μM. As to the method:
as §1, §2

Test [3] deals with T2, Human prostatic acid phosphatase (obtained commercially) (Homo sapiens, UniProt P15309).
T2 construct: purchased Sigma; host or cells: human semen
T2 sequence (P15309 33-386): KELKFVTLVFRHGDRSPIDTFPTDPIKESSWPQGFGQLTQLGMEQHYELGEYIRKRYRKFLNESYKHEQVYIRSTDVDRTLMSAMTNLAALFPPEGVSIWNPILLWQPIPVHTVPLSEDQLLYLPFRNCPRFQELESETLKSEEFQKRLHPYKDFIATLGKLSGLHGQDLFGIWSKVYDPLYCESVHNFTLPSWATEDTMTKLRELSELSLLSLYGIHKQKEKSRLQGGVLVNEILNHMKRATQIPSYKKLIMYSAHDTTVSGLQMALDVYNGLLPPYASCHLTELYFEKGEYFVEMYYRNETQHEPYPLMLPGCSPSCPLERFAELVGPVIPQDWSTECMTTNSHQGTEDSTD
Description: biochemical. The following applies: for inhibition at 10000 µM: compound at 10 mM, read-out: % change of activity; for inhibition at 10000 µM / % change of activity: 0.1 mM PNPP, 100 mM acetate pH 5, 30°; for % change of activity: compound at 10 μM. The method, then: as §1, §2

Test [4] relates to Purified phosphotyrosyl protein phosphatase from human placental membranes. Type of test: biochemical. As to the method:
Phosphotyrosine phosphatase activity was measured by the release of ^32 Pi from ^32 P-Tyr-angiotensin II in a […] reaction mixture containing 0.1M acetate, pH 5, 5 mM DTT, 2.5 mg/ml BSA and 0.05 mM ^32 Pi of ^32 P-Tyr-angiotensin II. After incubation at 30° for 30 minutes, the reaction was terminated by the addition of […] of 10% TCA. 0.2 ml of 1.25 mM KH2 PO4 in 1N H2 SO4 was added as carrier. 0.1 ml of 5% ammonium molybdate was then added. After extraction with 0.5 ml of 1:1 isobutanol:benzene, 0.25 ml of the upper phase was taken and mixed with 10 ml Aquasol II to be counted in a packard scintillation counter.
This is another data set of the same source.

Where [5] appears, read: pH 10, read-out: % change of activity.
Setting [6] is: pH 5, read-out: % change of activity.
Setting [7] is: compound at 10 mM, 0.8 mM PNPP, 100 mM acetate pH 5, 0.2 mg/ml BSA, 5 mM DTT, 30°.
Where [8] appears, read: compound at 10 μM, 0.8 mM PNPP, 100 mM acetate pH 5, 0.2 mg/ml BSA, 5 mM DTT, 30°.

Like-named read-outs stand apart in the source and are kept apart here.

T1 sequence (P05187 23-506 limits assumed): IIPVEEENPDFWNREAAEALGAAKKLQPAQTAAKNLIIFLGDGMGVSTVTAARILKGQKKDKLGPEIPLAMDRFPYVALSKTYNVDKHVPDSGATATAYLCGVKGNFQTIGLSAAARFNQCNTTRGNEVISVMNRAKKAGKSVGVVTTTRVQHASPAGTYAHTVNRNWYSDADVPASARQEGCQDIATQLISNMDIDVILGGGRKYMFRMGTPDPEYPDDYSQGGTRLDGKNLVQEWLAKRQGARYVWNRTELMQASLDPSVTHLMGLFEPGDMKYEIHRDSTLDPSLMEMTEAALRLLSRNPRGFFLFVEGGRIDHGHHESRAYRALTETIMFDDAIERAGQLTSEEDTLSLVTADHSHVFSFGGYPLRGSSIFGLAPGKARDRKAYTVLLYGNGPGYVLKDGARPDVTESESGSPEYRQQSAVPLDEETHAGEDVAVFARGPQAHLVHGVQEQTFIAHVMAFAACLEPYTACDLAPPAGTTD

Consider `O=C(O)CN(CCN(CC(=O)O)CC(=O)O)CC(=O)O` [EDTA, Ethylene diamine tetraacetate], for which the “stimulation of PNPP phosphatase activity” value in test [1] worked out at 79%. The “% change of activity” value in test [1] (purified phosphotyrosyl protein phosphatase, pH 5, 20000 µM) is reported as “+78.9%”. The inhibition at 20000 µM in test [2] (setting [5]) was 94%; in test [3] (setting [6]), 2.2%. In test [3], the “effect on PNPP phosphatase activity” value is “not affected”. In test [4], the “stimulation of 32P-Tyr-angiotensin II phosphatase activity” value came to 29.8%.
As for `N[C@@H](Cc1ccc(OP(=O)(O)O)cc1)C(=O)O` [p-tyrosine, phosphotyrosine], in test [1] (setting [7]), the “% change of activity” value is on record as -21.6%. The “effect on PNPP phosphatase activity” value in test [1] (concentration not given) is listed as “slightly inhibited”. The inhibition at 10000 µM in test [2] worked out at 85.6%; in test [3] it was 24.4%. For the same compound, in test [4] (compound at 10 mM), the “inhibition of 32P-Tyr-angiotensin II phosphatase activity” value is reported as 11.5%.
For the compound `O=C(O)[C@H](O)[C@@H](O)C(=O)O` [L-tartrate], in test [1], the “effect on PNPP phosphatase activity” value is reported as “nearly completely inhibited”. Further, in test [1] (purified phosphotyrosyl protein phosphatase, pH 5, 5000 µM), the “% change of activity” value is -98.1%. In addition, the inhibition at 5000 µM in test [2] (setting [5]) is 10.4%; in test [3] (setting [6]) it was 97.6%. Besides, the “inhibition of 32P-Tyr-angiotensin II phosphatase activity” value in test [4] amounted to 27.6%.
For the compound `N[C@@H](COP(=O)(O)O)C(=O)O` [p-serine, phosphoserine], the “% change of activity” value in test [1] (setting [7]) is recorded as “+73.4%”. In addition, the “stimulation of PNPP phosphatase activity” value in test [1] (text summary of Table I, phosphoserine 10 mM per table) was found to be 73%. Moreover, the figures for the inhibition at 10000 µM in test [2] and in test [3] were 92.6% and 19%, respectively. Besides, in test [3] (concentration not given), the “effect on PNPP phosphatase activity” value is on record as “slightly inhibited”. Also, the “stimulation of 32P-Tyr-angiotensin II phosphatase activity” value in test [4] (compound at 10 mM) worked out at 4.3%.
For molybdate, the “effect on PNPP phosphatase activity” value in test [1] (compound at 10 μM) is “nearly completely inhibited”. For the same compound, the “% change of activity” value in test [1] (setting [8]) was -96.4%; in test [2], 0%; in test [3] it was -95.0%. Besides, the “inhibition of 32P-Tyr-angiotensin II phosphatase activity” value in test [4] (compound at 10 μM) was determined as 20.8%.
Consider `[O]=[V]([O-])([O-])[O-]` [vanadate], for which the “% change of activity” value in test [1] (setting [8]) is reported as -38.2%; in test [2], -18.3%; in test [3], -87.8%. In addition, the “effect on PNPP phosphatase activity” value in test [1] (compound at 100 μM) was “nearly completely inhibited”. Further, the “inhibition of 32P-Tyr-angiotensin II phosphatase activity” value in test [4] (compound at 10 μM) came to 46.4%.

The record behind these values is patent US4710469A, “Novel phosphotyrosyl protein phosphatase” (Merck & Co., Inc., priority 1986, dated 1987).
